Assay results reported in ChEMBL document CHEMBL1147600, “Synthesis of 5'-C-methyl-1',3'-dioxolan-4'-yl nucleosides” (Bioorg Med Chem Lett, 2004).
Active and inactive are the calls of the source. The rule behind the calls is not given here.

Key:
Hepatitis B virus [1] = assay: Compound was evaluated against hepatitis B virus; IA means inactive; assay type: functional, organism-based
Hepatitis C virus [2] = assay: Compound was evaluated against hepatitis C virus; IA means inactive; assay type: functional, organism-based; conditions: Hepacivirus hominis
[3] = Toxicity against human lymphocytes was determined up to 100 uM concentration; NA means Not Active
Huh-7 = assay: Toxicity against human Huh7 cells was determined up to 100 uM concentration; NA means Not Active; assay type: cell-based
HepG2 = assay: Toxicity against human hepatoma HepG2 cells was determined up to 100 uM concentration; NA means Not Active; assay type: cell-based
Hepatitis B virus [4] = assay: Activity of compound against hepatitis B virus was determined; IA means inactive; assay type: functional, organism-based
Hepatitis C virus [5] = assay: Activity of compound against hepatitis C virus was determined; IA means inactive; assay type: functional, organism-based; conditions: Hepacivirus hominis

Compound	Activity (Hepatitis B virus [1])	Activity (Hepatitis C virus [2])	Toxicity [3]	Toxicity (Huh-7)	Toxicity (HepG2)	Activity (Hepatitis B virus [4])	Activity (Hepatitis C virus [5])
C[C@H]1O[C@@H](COC(=O)c2ccccc2)O[C@H]1n1cc(F)c(N)nc1=O	inactive	inactive	Not Active	Not Active	Not Active	–	–
C[C@@H]1OC(CO)OC1n1cc(F)c(N)nc1=O (stereo not given in full)	inactive	inactive	Not Active	Not Active	Not Active	–	–
C[C@H]1O[C@@H](CO)O[C@H]1n1cc(F)c(N)nc1=O	inactive	inactive	Not Active	Not Active	Not Active	–	–
C[C@H]1O[C@@H](COC(=O)c2ccccc2)O[C@@H]1n1cc(F)c(N)nc1=O	–	–	Not Active	Not Active	Not Active	inactive	inactive
C[C@H]1O[C@@H](CO)O[C@@H]1n1cc(F)c(N)nc1=O	inactive	inactive	Not Active	Not Active	Not Active	–	–
